Experimental data reported in US20020120008A1, “Life extension of drosophila by a drug treatment” (priority 2000, published 2002).

Assays:
histones H3 and H4 = test: Histone acetylation level by western blot in flies fed PBA; format: in vivo, Drosophila melanogaster; conditions: flies fed PBA versus untreated, FIG. 4A and 4B
Text: PBA, an inhibitor of histone deacetylase, is known to enhance acetylation in the tails of histones H3 and H4, which causes the tails to be released from the DNA (Lea et al. Induction of Histone Acetylation and Growth Regulation in Erythroleukemia Cells by 4-phenylbutyrate and Structural Analogs Anticancer Research 19:1971-1976 (1999)). The acetylation of histones changes the binding affinity between histones and DNA, and leads genes to recruit transcription factors and undergo transcription. Using western blots stained with specific antibodies, the level of histone acetylation was measured in Drosophila, with and without PBA treatment. Batches of 100 flies (males+females) were used to prepare histones (Alfageme, C. R., Zweidler, A., Mahowald, A. & Cohen, L. H. Histones of Drosophila embryos J. Biol. Chem. 12, 3729-3736 (1974)). The homogenates of whole flies were centrifuged at 2,500×g for 10 min in a medium containing 0.05 M glycine, 10 mM Tris potassium maleate, 5 mM MgCl2, 10 mM mercaptoethanol, pH 7.3. Isolated nuclei were used to extract histones by HCl treatment. 10 μg samples of histone protein were loaded on a 16.5% polyacrylamide gel for electrophoresis, then transferred to a PVDF membrane (Immobilin-P transfer membrane, Millipore, Bedford, Mass.), followed by hybridization with antibodies to acetylated and nonacetylated H3 and H4 (Upstate Biotechnology, Lake Placid, N.Y.).

Drosophila [1] = test: Locomotor activity, negative geotaxis in counter current distribution apparatus; format: in vivo, Drosophila melanogaster; conditions: old flies, FIG. 3A
Description: Life extension without maintaining physical or mental vigor is undesirable. To examine whether the life span increase by PBA is associated with extended maintenance of vigor, the locomotor activity was measured for young and old flies raised with and without PBA treatment. A known assay of negative geotaxis in a counter current distribution apparatus was measured the locomotor activity of the flies (Benzer, S. Proc. Natl. Acad. Sci. U.S.A. 58, 1112-1119 (1967); FIG. 3A).

Drosophila [2] = test: Resistance to paraquat induced stress (survival); format: in vivo, Drosophila melanogaster; conditions: sucrose solution containing 20 mM paraquat, FIG. 3C
Description: (§1) Stress to an animal can be achieved by starvation or an increase production of free radicals. The effective removal of free radicals or the increase of antioxidant levels reduce stress to the animal and are important in slowing down the ageing process. The failure to repair oxidative damages and the elevation of free radial is known to shorten the life span of animal. Therefore, resistance to stress was measured in PBA fed flies by measuring if they have an increase resistance to the free radical generator, paraquat, and to dry starvation. PBA treated and control flies drank sucrose solution containing 20 mM paraquat were tested for duration of life span (e.g. survival) (FIG. 3C). […] PBA treated and control flies were also put into empty vials to measure their survival on dry starvation (FIG. 3B).

histone deacetylase = conditions: Lea & Randolph 1998; cited from earlier work
Drosophila [3] = test: Food intake (food dye in alimentary tract), caloric restriction test; format: in vivo, Drosophila melanogaster; conditions: overnight feeding, ten flies per group
Description: (§2) Caloric restriction increases life span in rodents, worms, and yeast (Guarente, L & Kenyon, C. Nature 408, 255-262 (2000)). Although PBA is odorless and tasteless to human, flies may dislike the smell or taste of the drug, which may cause caloric restriction. To test the issue of possible caloric restriction effects, the intake of food was measured by adding food dye to both the control and PBA containing media. After an overnight feeding, the alimentary tracts of ten flies from each group were dissected out and examined for color. No difference in the alimentary tract of these flies was discernible. Further, the weight and size of the flies were measured after ten days of feeding with or without PBA (Table 1). […] Therefore, the extension of life span observed in Drosophila fed PBA is most likely not due to caloric restriction.

Drosophila EST clones = test: Differential gene expression on high density membrane arrays; format: in vivo, Drosophila melanogaster; conditions: 10 mM PBA, 10 days, 29° C.
Description: To investigate the differential pattern of gene activity resulting from PBA treatment, high density membrane arrays containing about 27,000 Drosophila EST clones (Research Genetics, Huntsville, Tenn.) were used. Messenger RNA was prepared from either 10 day old flies that had been treated with 10 mM PBA at 29° C. from emergence onward. A similar preparation was made from untreated flies. These RNA preparations were used as probes on the membrane arrays.
The Smart PCR cDNA synthesis kit (Clontech, Palo Alto, Calif.) was used to synthesize probes for hybridization. Total RNA was prepared from flies (males+females) fed for 10 days at 29° C. with medium containing 10 mM PBA or plain medium. After first strand synthesis of cDNAs by MMLV reverse transcriptase (M-MLV reverse transcriptase, Boehringer Mannheim, Indianapolis, Ind.), the cDNA was amplified by polymerase chain reaction (PCR). The reaction consisted of 95° C. for 1 minute, then 24 cycles of 95° C. for 15 seconds, 65° C. for 30 seconds, and 68° C. for 6 minutes. Probes were prepared by a random primed DNA labeling method with p^32. Filters containing 27,000 Drosophila EST clones (Research Genetics, Huntsville, Tenn.) were prehybridized for 4 hours, then probes were added to hybridize for 16 hours at 58° C. in a buffer containing 1 M NaCl, 0.05M Tris (pH 8.0), 5 mM EDTA, 1% SDS, and 10% Dextran Sulfate. […]

Drosophila [4] = test: Life span of Drosophila fed PBA early or late in life; format: in vivo, Drosophila melanogaster
transcription levels = test: Verification of changes in transcription levels (RT-PCR / Northern); conditions: 10 mM PBA, 10 days, 29° C.
Description: In another embodiment of the invention RT-PCR was be used to verify the changes in transcription levels seen by the difference in hybridization on the membrane arrays. Newly emerged adult flies (males+females) were fed food containing 10 mM PBA, or plain food for 10 days at 29° C., then total RNA was extracted and used to synthesize cDNA. For each PCR reaction, 50 ng of cDNA was used. Primers were designed from the sequence of each gene to detect fragments of between 300 and 600 base pairs (Table 4). PCR reactions were performed with 30 cycles of 94° C. for 1 minute, 55° C. for 1 minute, and 72° C. for 1 minute.
Biochem. Biophys. 301, 34-40 (1993)). Elongation factor1-alpha plays a critical role in maintaining the level of protein synthesis, which normally declines with age (Webster, G. C. & Webster, S. L. Specific disappearance of translatable messenger RNA for elongation factor one in aging Drosophila melanogaster. Mech. Ageing Devel. 24, 335-342). […] Heat shock proteins enhance resistance to stress and extend life span (Tatar, M., Khazaeli, A. A. & Curtsinger, J. W. Chaperoning extended life. Nature 390, 30 (1997); Lithgow, G. J. Temperature, stress response and aging. Rev. Clin. Gerontol. 6, 119-127 (1996)).

Drosophila [5] = test: Survival on dry starvation; format: in vivo, Drosophila melanogaster; conditions: empty vials, FIG. 3B
Description: as §1

Drosophila [6] = test: Weight and size of flies fed PBA; format: in vivo, Drosophila melanogaster
Description: (§3) Table 1 is a comparison of weight, size and reproductive ability of Drosophila raised on food with and without 10 mM PBA for 10 days at 25° C., as described in Example 1, infra.
as §2

Drosophila [7] = test: Life span of Drosophila fed various concentrations of PBA; format: in vivo, Drosophila melanogaster
Drosophila [8] = test: Reproductive activity of Drosophila fed PBA (eggs, adult progeny, progeny weight and size); format: in vivo, Drosophila melanogaster
Description: as §3
Reproductive signaling in C. elegans and Drosophila also contribute to extend life span (Guarente, L & Kenyon, C. Nature 408, 255-262 (2000)). PBA treatment may slow down reproduction of flies and thus results in the extension of life span. The role of PBA on the reproductive activity of female Drosophila was examined by counting the number of eggs layed, the percentage of eggs yielding adult progeny, and the weight and size of the progeny.

[9] = 10 mM PBA, 10 days, 25° C., n = 10
[10] = 10 mM PBA, 10 days, 25° C., n = 40
[11] = w^118 flies, medium containing 10 mM PBA, 29° C. (FIG. 1A)
[12] = progeny of flies raised on 10 mM PBA, n = 10
[13] = progeny of flies raised on 10 mM PBA, n = 40

O=C([O-])CCCc1ccccc1.[Na+] [PBA, 4-phenylbutyric acid, sodium salt]
acetylation of histones H3 and H4 (histones H3 and H4): increase of acetylated H3 and H4 | climbing ability (locomotor activity) (Drosophila [1]): enhanced the climbing ability of old flies significantly | survival under paraquat induced stress (Drosophila [2]): survived much longer | activity on histone deacetylase (histone deacetylase): inhibits the activity of histone deacetylase | intake of food (colour of alimentary tract) (Drosophila [3]): No difference | number of genes strongly induced (Drosophila EST clones): One hundred | number of genes suppressed (Drosophila EST clones; disappearance of a visible spot): 48 | life span compared with untreated flies (Drosophila [4]; PBA from emergence to 12 days, then plain medium): increased life span compared with untreated flies | life span compared with untreated flies (Drosophila [4]; plain medium for first 12 days, then PBA for remainder of life): increased life span compared with untreated flies | treatment initiated at later age versus young age (Drosophila [4]; virgin female flies (not in males), FIG. 2A): even more effective than the same duration of treatment at young age | Fold-change, cytochrome P450-4d1 (CG3656) (transcription levels; induced): 7.2 fold | Fold-change, daughterless (CG5102) (transcription levels; induced): 8.0 fold | Fold-change, dnaJ like2 (CG3061) (transcription levels; induced): 2.9 fold | Fold-change, epididymal secretory protein (CG7291) (transcription levels; induced): 7.5 fold | Fold-change, glutathione S transferase (CG10045) (transcription levels; induced): 4.6 fold | Fold-change, hsc70 (CG4264) (transcription levels; induced): 4.5 fold | Fold-change, hsp60 (CG12101) (transcription levels; induced): 6.7 fold | Fold-change, imaginal disc growth factor1 (CG4472) (transcription levels; induced): 5.3 fold | Fold-change, inebriated (CG15444) (transcription levels; induced): 26.8 fold | Fold-change, mitochondrial phosphate carrier protein (CG4994) (transcription levels; induced): 5.1 fold | Fold-change, superoxide dismutase (CG8905) (transcription levels; induced): 51.9 fold | Fold-change, translational elongation factor1 α (CG8280) (transcription levels; induced): 4.1 fold | Fold-change, transportin (CG7398) (transcription levels; induced): 8.0 fold | Fold-Change, NADH:ubiquinone reductase 75kD subunit precursor (CG2286) (transcription levels; repressed): 25.3 fold | Fold-Change, calreticulin (GH25160) (transcription levels; repressed): 26.5 fold | Fold-Change, cyclin-dependent kinase9 (GH21935) (transcription levels; repressed): 2.7 fold | Fold-Change, cytochrome c oxidase (FBgn0013674) (transcription levels; repressed): 6.6 fold | Fold-Change, cytochrome c oxidase subunit Vlb (CG14235) (transcription levels; repressed): 2.2 fold | Fold-Change, dnaJ like1 (CG10578) (transcription levels; repressed): 13.2 fold | Fold-Change, fatty acid synthetase (CG3523) (transcription levels; repressed): 2.4 fold | Fold-Change, glyceraldehyde 3 phosphate dehydrogenase1 (CG12055) (transcription levels; repressed): 3.7 fold | Fold-Change, hexokinase (CG3001) (transcription levels; repressed): 5.0 fold | Fold-Change, osa (GH03026) (transcription levels; repressed): 5.0 fold | Fold-Change, peptidyl glycine α hydroxylating monooxygenase (CG3832) (transcription levels; repressed): 1.4 fold | Fold-Change, peroxisomal farnesylated protein (GH03076) (transcription levels; repressed): 1.8 fold | Fold-Change, porin (GH08586) (transcription levels; repressed): 1.4 fold | resistance to dry starvation (Drosophila [5]): enhanced the resistance to starvation | weight of 5 flies, parent females (Drosophila [6]; [9]): 5.1 ± 0.2 mg | weight of 5 flies, parent males (Drosophila [6]; [9]): 3.3 ± 0.4 mg | size of fly, parent female (Drosophila [6]; [10]): 5.5 ± 0.1 mm | size of fly, parent male (Drosophila [6]; [10]): 4.6 ± 0.1 mm | weight and size of the flies versus control (Drosophila [6]; after ten days of feeding with or without PBA): no differences were observed | life span compared to same strain fed on fly medium (Drosophila [7]; Canton-S strain, 10 mM PBA (FIG. 1C)): extended life span | effect on longevity (Drosophila [7]; w^118 flies, lower concentrations of PBA (0.1, 1, 2.5, 5 mM)): no effect on longevity | extension in maximum life span (Drosophila [7]; [11]): 60% | extension in median life span (Drosophila [7]; [11]): about 35% | egg laying (Drosophila [8]; 3 males + 3 females a vial for 16 hrs, n = 20 vials, 10 mM PBA, 10 days, 25° C.): 70 ± 16 | effect on reproductive activity of female flies (Drosophila [8]; all measurements of Table 1): no detrimental effect | % of eggs yielding adults (Drosophila [8]; n = 20 vials, 10 mM PBA, 10 days, 25° C.): 70 ± 16% | weight of 5 flies, progeny females (Drosophila [8]; [12]): 5.2 ± 0.2 mg | weight of 5 flies, progeny males (Drosophila [8]; [12]): 3.5 ± 0.3 mg | size of fly, progeny female (Drosophila [8]; [13]): 5.5 ± 0.1 mm | size of fly, progeny male (Drosophila [8]; [13]): 4.6 ± 0.2 mm
